Laboratory results as given in patent US20070149535A1, “Protein kinase inhibitors” (ONCALIS AG, priority 2004, published 2007).

How the values were obtained:
Assay in all cases: Yeast growth assay, specificity profiling
Format in all cases: cell-based
Set-up in all cases: key: “−” indicates no growth restoration i.e. no activity against the particular kinase; “+”, “++”, and “+++” indicate activity detected by restoration of growth, classified into three categories of potency; “+”, “++”, and “+++” indicate activity detected by restoration of growth, classified into three categories of potency; “+”, “++”, and “+++” indicate activity detected by restoration of growth, classified into three categories of potency
Details in all cases: 7 concentrations between 0.2 and 100 μM
FGFR-3 = target: T1, FGFR-3 (Homo sapiens, UniProt P22607)
T1 construct: expressed in transfected cells; host or cells: yeast
T1 sequence (P22607 23-806): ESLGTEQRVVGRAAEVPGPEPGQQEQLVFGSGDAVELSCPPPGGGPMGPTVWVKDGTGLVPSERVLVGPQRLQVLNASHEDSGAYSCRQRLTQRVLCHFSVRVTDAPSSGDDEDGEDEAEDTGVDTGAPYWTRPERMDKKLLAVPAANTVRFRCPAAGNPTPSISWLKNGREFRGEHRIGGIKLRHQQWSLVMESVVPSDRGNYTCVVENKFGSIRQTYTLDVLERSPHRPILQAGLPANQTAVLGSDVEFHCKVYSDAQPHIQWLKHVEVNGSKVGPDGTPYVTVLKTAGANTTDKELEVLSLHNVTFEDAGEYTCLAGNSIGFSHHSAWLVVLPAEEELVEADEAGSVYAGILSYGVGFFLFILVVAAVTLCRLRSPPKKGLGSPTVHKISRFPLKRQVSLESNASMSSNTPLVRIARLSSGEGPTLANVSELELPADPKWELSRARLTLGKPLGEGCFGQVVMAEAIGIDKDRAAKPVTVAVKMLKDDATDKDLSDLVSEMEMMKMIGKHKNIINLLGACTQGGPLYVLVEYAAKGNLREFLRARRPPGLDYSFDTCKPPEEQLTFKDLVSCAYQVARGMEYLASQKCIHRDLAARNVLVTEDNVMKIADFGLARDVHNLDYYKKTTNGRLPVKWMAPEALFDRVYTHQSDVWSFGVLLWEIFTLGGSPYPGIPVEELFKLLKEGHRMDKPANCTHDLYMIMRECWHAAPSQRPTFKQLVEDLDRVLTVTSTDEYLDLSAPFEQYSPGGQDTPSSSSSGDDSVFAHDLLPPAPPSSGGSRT
In short: (§1)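 Read-out: rescue of yeast growth, scored − (none) to +++ by maximal restoration level and concentration at which it occurs. Galactose induces RTK expression from plasmid, which inhibits growth; glucose pre-culture represses it. 7-point titration, 0.2–100 μM.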

ErbB2 = target: T2, ErbB2 (Homo sapiens, UniProt P04626)
T2 construct: expressed in transfected cells; host or cells: yeast
T2 sequence (P04626 23-1255): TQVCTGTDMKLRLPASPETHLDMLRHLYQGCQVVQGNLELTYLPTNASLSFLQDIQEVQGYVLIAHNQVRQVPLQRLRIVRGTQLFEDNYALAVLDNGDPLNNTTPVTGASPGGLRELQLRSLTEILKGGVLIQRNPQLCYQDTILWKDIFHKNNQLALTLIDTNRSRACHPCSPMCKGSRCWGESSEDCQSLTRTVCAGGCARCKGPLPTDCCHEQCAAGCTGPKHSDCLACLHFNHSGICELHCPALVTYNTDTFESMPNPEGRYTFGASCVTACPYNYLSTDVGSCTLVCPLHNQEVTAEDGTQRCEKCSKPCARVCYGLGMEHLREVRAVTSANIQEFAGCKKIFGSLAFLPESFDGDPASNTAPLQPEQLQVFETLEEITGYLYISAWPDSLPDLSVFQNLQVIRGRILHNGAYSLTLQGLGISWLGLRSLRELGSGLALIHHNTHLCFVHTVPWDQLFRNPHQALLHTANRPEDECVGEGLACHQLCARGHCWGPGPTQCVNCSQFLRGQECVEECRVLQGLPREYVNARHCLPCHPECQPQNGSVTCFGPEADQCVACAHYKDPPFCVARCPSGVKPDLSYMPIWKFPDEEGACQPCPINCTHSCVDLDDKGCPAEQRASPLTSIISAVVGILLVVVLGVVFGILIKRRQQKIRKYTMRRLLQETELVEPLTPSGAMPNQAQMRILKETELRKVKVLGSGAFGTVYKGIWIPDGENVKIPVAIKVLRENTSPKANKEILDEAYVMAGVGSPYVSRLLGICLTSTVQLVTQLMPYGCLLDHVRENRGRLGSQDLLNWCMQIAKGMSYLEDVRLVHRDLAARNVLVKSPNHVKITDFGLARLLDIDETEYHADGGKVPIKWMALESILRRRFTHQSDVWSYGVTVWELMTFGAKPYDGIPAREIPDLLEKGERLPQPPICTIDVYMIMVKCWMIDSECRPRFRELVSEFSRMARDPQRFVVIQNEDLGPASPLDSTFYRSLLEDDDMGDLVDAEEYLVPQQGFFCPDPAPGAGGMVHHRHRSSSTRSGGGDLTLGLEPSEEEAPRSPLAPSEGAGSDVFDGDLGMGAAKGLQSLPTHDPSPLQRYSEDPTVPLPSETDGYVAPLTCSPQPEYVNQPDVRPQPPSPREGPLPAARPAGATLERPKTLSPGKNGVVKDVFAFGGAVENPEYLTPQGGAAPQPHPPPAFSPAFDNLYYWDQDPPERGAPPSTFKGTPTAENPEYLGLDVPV
In short: as §1

FGFR-2 = target: T3, FGFR-2 (Homo sapiens, UniProt P21802)
T3 construct: expressed in transfected cells; host or cells: yeast
In short: as §1

KIT = target: T4, KIT (Homo sapiens, UniProt P10721)
T4 construct: expressed in transfected cells; host or cells: yeast
T4 sequence (P10721 26-976): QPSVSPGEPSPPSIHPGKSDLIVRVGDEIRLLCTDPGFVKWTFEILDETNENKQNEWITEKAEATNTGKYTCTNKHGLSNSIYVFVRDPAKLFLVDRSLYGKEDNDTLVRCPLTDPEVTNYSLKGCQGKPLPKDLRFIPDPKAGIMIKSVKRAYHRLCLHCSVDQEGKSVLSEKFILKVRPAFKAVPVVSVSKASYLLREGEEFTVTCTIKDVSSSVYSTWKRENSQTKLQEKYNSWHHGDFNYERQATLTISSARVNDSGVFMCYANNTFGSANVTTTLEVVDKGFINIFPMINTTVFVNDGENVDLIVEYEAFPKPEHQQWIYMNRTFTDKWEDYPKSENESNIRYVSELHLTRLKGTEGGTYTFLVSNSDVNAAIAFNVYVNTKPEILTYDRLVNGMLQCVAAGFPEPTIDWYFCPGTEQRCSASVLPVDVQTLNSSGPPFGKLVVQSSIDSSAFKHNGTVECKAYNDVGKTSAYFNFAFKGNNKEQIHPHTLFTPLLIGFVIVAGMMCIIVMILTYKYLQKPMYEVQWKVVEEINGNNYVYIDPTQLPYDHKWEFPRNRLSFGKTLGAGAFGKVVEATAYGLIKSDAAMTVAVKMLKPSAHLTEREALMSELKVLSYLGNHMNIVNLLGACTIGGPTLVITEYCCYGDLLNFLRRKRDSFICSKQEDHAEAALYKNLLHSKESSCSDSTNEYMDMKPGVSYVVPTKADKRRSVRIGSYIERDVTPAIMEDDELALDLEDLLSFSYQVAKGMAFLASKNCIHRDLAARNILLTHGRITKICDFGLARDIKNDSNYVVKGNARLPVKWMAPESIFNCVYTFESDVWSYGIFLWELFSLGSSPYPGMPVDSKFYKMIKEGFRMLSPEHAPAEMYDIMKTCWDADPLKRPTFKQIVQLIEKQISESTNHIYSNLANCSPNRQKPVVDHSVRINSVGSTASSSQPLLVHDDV
In short: as §1

FLT3 = target: T5, FLT3 (Homo sapiens, UniProt P36888)
T5 construct: expressed in transfected cells; host or cells: yeast
T5 sequence (P36888 27-993): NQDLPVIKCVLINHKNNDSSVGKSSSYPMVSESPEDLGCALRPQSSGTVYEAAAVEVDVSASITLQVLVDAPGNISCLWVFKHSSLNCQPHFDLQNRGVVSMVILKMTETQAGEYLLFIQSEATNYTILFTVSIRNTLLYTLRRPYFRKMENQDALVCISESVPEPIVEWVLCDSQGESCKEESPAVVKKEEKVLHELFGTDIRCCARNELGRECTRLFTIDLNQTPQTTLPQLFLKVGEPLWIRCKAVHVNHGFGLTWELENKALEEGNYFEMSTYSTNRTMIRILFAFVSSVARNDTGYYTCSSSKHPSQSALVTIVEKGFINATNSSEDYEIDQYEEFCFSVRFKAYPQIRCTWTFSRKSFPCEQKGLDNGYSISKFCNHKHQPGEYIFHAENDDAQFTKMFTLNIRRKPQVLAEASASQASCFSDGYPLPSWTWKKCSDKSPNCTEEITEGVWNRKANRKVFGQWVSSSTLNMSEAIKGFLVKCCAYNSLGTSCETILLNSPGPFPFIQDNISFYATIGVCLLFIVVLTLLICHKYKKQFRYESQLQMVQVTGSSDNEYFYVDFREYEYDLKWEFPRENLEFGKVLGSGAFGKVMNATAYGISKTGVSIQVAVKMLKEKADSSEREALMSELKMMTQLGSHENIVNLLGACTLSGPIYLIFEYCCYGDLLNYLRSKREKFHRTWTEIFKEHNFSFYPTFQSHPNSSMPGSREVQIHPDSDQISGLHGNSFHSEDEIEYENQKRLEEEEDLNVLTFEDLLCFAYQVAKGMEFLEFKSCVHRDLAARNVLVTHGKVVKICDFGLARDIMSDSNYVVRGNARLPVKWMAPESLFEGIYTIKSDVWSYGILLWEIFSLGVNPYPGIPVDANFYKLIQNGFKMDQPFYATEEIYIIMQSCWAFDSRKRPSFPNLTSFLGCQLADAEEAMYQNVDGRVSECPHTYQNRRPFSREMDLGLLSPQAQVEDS
In short: as §1

PDGFRb = target: T6, PDGFRb (Homo sapiens, UniProt P09619)
T6 construct: expressed in transfected cells; host or cells: yeast
T6 sequence (P09619 33-1106): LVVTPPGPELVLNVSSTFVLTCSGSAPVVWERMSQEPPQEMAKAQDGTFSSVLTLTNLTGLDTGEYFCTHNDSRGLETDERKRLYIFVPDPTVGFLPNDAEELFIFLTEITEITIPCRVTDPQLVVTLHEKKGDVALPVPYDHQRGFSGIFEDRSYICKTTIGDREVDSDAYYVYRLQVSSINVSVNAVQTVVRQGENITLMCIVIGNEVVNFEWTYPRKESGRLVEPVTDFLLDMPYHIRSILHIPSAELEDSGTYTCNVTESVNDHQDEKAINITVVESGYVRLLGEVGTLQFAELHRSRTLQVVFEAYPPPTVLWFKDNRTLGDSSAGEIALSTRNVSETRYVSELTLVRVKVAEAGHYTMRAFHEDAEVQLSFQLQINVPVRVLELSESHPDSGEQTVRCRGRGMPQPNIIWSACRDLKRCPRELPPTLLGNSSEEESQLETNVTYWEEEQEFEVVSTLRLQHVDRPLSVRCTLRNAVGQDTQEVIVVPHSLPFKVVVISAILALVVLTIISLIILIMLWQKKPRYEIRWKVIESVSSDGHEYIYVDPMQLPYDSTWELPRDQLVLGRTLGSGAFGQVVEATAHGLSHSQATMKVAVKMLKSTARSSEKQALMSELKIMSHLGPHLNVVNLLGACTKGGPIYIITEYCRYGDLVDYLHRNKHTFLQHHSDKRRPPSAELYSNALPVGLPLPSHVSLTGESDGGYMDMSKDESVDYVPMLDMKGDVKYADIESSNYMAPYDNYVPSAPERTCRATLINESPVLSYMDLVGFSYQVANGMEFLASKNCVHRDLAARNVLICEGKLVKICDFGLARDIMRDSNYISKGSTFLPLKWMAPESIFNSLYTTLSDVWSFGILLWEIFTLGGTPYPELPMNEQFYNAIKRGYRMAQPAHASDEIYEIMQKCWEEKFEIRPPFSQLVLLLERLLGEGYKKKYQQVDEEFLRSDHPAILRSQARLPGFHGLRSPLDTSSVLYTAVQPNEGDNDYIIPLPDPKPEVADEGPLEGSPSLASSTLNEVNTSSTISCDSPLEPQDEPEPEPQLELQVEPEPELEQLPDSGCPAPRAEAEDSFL
In short: as §1

PDGFRa = target: T7, PDGFRa (Homo sapiens, UniProt P16234)
T7 construct: expressed in transfected cells; host or cells: yeast
T7 sequence (P16234 24-1089): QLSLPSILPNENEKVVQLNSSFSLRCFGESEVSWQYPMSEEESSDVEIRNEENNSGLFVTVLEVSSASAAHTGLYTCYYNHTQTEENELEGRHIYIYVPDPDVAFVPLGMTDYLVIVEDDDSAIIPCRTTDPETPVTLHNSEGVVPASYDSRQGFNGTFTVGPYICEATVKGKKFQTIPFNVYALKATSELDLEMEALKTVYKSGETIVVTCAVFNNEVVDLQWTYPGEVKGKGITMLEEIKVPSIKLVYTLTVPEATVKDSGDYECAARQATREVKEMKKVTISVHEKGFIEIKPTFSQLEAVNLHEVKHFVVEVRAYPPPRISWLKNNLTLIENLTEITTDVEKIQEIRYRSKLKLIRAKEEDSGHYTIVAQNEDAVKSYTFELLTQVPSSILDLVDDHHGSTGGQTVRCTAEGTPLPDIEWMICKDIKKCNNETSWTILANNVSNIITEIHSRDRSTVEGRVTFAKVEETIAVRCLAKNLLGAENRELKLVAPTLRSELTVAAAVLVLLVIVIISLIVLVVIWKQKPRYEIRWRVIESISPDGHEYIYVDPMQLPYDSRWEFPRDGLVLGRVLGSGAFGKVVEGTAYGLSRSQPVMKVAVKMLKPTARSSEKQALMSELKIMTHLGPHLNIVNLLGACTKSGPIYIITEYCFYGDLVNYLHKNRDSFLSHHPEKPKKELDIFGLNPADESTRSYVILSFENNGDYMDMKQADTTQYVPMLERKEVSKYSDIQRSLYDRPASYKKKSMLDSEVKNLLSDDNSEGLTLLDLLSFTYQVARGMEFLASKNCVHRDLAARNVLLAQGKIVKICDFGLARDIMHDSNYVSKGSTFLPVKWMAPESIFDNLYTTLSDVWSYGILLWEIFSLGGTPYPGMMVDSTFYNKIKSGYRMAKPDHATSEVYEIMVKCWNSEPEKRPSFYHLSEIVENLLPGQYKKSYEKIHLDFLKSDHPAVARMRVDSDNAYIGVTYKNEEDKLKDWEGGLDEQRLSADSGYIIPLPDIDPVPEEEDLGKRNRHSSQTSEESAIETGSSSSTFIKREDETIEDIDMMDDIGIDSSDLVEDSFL
In short: as §1

Cc1nccn2c(Nc3cccc(Cl)c3)c(-c3ccccc3)nc12 [compound 3, (3-Chloro-phenyl)-(8-methyl-2-phenyl-imidazo[1,2-a]pyrazin-3-yl)-amine]
−: FGFR-3 growth restoration (FGFR-3) | ErbB2 growth restoration (ErbB2) | FGFR-2 growth restoration (FGFR-2) | KIT growth restoration (KIT) | FLT3 growth restoration (FLT3) | PDGFRb growth restoration (PDGFRb) | PDGFRa growth restoration (PDGFRa)

COc1cccc(-c2nc3cnccn3c2Nc2cccc(Cl)c2)c1 [compound 7, (3-Chloro-phenyl)-[2-(3-methoxy-phenyl)-imidazo[1,2-a]pyrazin-3-yl]-amine]
−: FGFR-3 growth restoration (FGFR-3) | ErbB2 growth restoration (ErbB2) | FGFR-2 growth restoration (FGFR-2) | KIT growth restoration (KIT) | FLT3 growth restoration (FLT3) | PDGFRb growth restoration (PDGFRb) | PDGFRa growth restoration (PDGFRa)

Brc1cccc(Nc2c(-c3ccccc3)nc3cnccn23)c1 [compound 14, (3-Bromo-phenyl)-(2-phenyl-imidazo[1,2-a]pyrazin-3-yl)-amine]
−: FGFR-3 growth restoration (FGFR-3) | ErbB2 growth restoration (ErbB2) | FGFR-2 growth restoration (FGFR-2) | KIT growth restoration (KIT) | FLT3 growth restoration (FLT3) | PDGFRb growth restoration (PDGFRb) | PDGFRa growth restoration (PDGFRa)

Clc1ccc(Nc2c(-c3ccccc3)nc3cnccn23)cc1 [compound 16, (4-Chloro-phenyl)-(2-phenyl-imidazo[1,2-a]pyrazin-3-yl)-amine]
−: FGFR-3 growth restoration (FGFR-3) | ErbB2 growth restoration (ErbB2) | FGFR-2 growth restoration (FGFR-2) | KIT growth restoration (KIT) | FLT3 growth restoration (FLT3) | PDGFRb growth restoration (PDGFRb) | PDGFRa growth restoration (PDGFRa)

c1ccc(Nc2c(-c3ccccc3)nc3cnccn23)cc1 [compound 23, Phenyl-(2-phenyl-imidazo[1,2-a]pyrazin-3-yl)-amine]
−: FGFR-3 growth restoration (FGFR-3) | ErbB2 growth restoration (ErbB2) | FGFR-2 growth restoration (FGFR-2) | KIT growth restoration (KIT) | FLT3 growth restoration (FLT3) | PDGFRb growth restoration (PDGFRb) | PDGFRa growth restoration (PDGFRa)

Cc1cccc(Nc2c(-c3ccccc3)nc3cnccn23)c1 [compound 34, (2-Phenyl-imidazo[1,2-a]pyrazin-3-yl)-m-tolyl-amine]
−: FGFR-3 growth restoration (FGFR-3) | ErbB2 growth restoration (ErbB2) | FGFR-2 growth restoration (FGFR-2) | KIT growth restoration (KIT) | FLT3 growth restoration (FLT3) | PDGFRb growth restoration (PDGFRb) | PDGFRa growth restoration (PDGFRa)

Clc1cccc(Nc2c(-c3ccccc3)nc3cnccn23)c1 [compound 35, (3-Chloro-phenyl)-(2-phenyl-imidazo[1,2-a]pyrazin-3-yl)-amine]
−: FGFR-3 growth restoration (FGFR-3) | ErbB2 growth restoration (ErbB2) | FGFR-2 growth restoration (FGFR-2) | KIT growth restoration (KIT) | FLT3 growth restoration (FLT3) | PDGFRb growth restoration (PDGFRb) | PDGFRa growth restoration (PDGFRa)

Cc1nccn2c(Nc3ccccc3)c(-c3ccccc3)nc12 [compound 39, (8-Methyl-2-phenyl-imidazo[1,2-a]pyrazin-3-yl)-phenyl-amine]
−: FGFR-3 growth restoration (FGFR-3) | ErbB2 growth restoration (ErbB2) | FGFR-2 growth restoration (FGFR-2) | KIT growth restoration (KIT) | FLT3 growth restoration (FLT3) | PDGFRb growth restoration (PDGFRb) | PDGFRa growth restoration (PDGFRa)

Cc1cccc(Nc2c(-c3ccccc3)nc3c(C)nccn23)c1 [compound 43, (8-Methyl-2-phenyl-imidazo[1,2-a]pyrazin-3-yl)-m-tolyl-amine]
−: FGFR-3 growth restoration (FGFR-3) | ErbB2 growth restoration (ErbB2) | FGFR-2 growth restoration (FGFR-2) | KIT growth restoration (KIT) | FLT3 growth restoration (FLT3) | PDGFRb growth restoration (PDGFRb) | PDGFRa growth restoration (PDGFRa)

Cc1nccn2c(Nc3cccc(F)c3)c(-c3ccccc3)nc12 [compound 44, (3-Fluoro-phenyl)-(8-methyl-2-phenyl-imidazo[1,2-a]pyrazin-3-yl)-amine]
−: FGFR-3 growth restoration (FGFR-3) | ErbB2 growth restoration (ErbB2) | FGFR-2 growth restoration (FGFR-2) | KIT growth restoration (KIT) | FLT3 growth restoration (FLT3) | PDGFRb growth restoration (PDGFRb) | PDGFRa growth restoration (PDGFRa)

Cc1nccn2c(Nc3ccc(F)c(F)c3)c(-c3ccccc3)nc12 [compound 45, (3,4-Difluoro-phenyl)-(8-methyl-2-phenyl-imidazo[1,2-a]pyrazin-3-yl)-amine]
−: FGFR-3 growth restoration (FGFR-3) | ErbB2 growth restoration (ErbB2) | FGFR-2 growth restoration (FGFR-2) | KIT growth restoration (KIT) | FLT3 growth restoration (FLT3) | PDGFRb growth restoration (PDGFRb) | PDGFRa growth restoration (PDGFRa)
